The source made the active and inactive calls.
biological target: T1, Serine/threonine-protein kinase STK11 (Homo sapiens, UniProt Q15831)
T1 sequence (Q15831 whole entry): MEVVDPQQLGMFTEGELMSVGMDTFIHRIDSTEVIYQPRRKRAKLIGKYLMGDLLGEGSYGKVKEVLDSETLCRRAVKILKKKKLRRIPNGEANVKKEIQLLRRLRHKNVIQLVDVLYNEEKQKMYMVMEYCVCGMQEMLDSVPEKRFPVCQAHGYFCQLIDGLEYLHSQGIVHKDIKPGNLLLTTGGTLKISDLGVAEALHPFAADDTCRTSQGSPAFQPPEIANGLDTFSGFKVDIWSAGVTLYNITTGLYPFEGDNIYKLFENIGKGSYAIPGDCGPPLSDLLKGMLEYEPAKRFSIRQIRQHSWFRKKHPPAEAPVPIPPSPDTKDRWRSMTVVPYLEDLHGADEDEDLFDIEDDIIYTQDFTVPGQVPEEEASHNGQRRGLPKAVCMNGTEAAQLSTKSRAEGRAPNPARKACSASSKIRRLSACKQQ
Note: in the data inactive means no Kd found up to 30 µM.

Row | Structure (SMILES) | Kd
1 | CC(=O)Nc1cccc(-n2c(=O)n(C3CC3)c(=O)c3c(Nc4ccc(I)cc4F)n(C)c(=O)c(C)c32)c1 [TRAMETINIB] | > 30 µM (inactive)
2 | CN1N=C(N)c2cn([C@@H]3O[C@H](COP(=O)(O)O)[C@@H](O)[C@H]3O)c3ncnc1c23 [TRICIRIBINE PHOSPHATE] | > 30 µM (inactive)

biological target: Protein kinase C alpha type (Homo sapiens, UniProt P17252)

Row | Structure (SMILES) | Kd
3 | CC(=O)Nc1cccc(-n2c(=O)n(C3CC3)c(=O)c3c(Nc4ccc(I)cc4F)n(C)c(=O)c(C)c32)c1 [TRAMETINIB] | > 30 µM (inactive)
4 | CN1N=C(N)c2cn([C@@H]3O[C@H](COP(=O)(O)O)[C@@H](O)[C@H]3O)c3ncnc1c23 [TRICIRIBINE PHOSPHATE] | > 30 µM (inactive)

biological target: Mitogen-activated protein kinase kinase kinase 4 (Homo sapiens, UniProt Q9Y6R4)
Sequence (Q9Y6R4 whole entry): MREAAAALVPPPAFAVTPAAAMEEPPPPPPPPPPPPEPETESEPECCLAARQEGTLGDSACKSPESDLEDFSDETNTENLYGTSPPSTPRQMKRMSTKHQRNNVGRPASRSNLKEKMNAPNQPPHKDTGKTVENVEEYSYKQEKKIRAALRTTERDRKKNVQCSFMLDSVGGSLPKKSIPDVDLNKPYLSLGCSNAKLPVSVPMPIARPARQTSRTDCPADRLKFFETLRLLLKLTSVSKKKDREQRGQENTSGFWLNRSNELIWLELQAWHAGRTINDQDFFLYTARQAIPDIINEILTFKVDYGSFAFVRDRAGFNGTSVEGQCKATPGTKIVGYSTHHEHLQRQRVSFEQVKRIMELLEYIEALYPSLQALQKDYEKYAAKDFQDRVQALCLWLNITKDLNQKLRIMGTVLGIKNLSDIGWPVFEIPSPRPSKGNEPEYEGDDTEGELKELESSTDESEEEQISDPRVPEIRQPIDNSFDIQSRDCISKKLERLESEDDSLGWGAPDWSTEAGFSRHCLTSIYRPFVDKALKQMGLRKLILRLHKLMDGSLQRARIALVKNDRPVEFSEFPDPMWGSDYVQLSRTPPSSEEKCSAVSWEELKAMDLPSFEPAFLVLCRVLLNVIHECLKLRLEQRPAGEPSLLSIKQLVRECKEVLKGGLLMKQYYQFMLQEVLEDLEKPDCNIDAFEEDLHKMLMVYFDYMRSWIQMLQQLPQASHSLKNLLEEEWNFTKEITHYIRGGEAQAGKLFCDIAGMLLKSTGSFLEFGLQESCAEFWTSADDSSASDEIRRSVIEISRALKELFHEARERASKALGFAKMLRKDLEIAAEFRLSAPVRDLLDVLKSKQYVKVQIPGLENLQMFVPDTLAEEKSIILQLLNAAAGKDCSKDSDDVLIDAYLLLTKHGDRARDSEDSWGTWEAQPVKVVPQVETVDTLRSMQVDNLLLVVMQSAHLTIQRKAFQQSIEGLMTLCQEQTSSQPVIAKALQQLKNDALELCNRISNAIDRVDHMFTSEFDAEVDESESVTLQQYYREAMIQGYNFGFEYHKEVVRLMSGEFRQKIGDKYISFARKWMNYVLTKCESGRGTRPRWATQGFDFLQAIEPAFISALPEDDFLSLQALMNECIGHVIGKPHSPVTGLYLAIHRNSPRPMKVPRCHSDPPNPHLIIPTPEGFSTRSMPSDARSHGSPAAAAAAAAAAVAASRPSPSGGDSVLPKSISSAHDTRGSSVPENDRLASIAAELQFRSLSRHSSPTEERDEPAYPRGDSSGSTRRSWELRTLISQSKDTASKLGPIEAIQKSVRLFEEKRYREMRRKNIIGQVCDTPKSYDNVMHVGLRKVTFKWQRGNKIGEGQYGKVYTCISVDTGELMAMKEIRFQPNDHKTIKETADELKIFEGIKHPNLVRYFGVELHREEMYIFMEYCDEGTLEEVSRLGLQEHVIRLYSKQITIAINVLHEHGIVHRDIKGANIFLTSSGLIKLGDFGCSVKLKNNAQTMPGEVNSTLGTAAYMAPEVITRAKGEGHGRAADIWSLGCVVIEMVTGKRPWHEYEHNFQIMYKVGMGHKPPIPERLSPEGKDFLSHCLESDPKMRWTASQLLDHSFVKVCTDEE

Row | Structure (SMILES) | Kd
5 | CC(=O)Nc1cccc(-n2c(=O)n(C3CC3)c(=O)c3c(Nc4ccc(I)cc4F)n(C)c(=O)c(C)c32)c1 [TRAMETINIB] | > 30 µM (inactive)
6 | CN1N=C(N)c2cn([C@@H]3O[C@H](COP(=O)(O)O)[C@@H](O)[C@H]3O)c3ncnc1c23 [TRICIRIBINE PHOSPHATE] | > 30 µM (inactive)

biological target: Chromodomain-helicase-DNA-binding protein 4 (Homo sapiens, UniProt Q14839)
Sequence (Q14839 whole entry): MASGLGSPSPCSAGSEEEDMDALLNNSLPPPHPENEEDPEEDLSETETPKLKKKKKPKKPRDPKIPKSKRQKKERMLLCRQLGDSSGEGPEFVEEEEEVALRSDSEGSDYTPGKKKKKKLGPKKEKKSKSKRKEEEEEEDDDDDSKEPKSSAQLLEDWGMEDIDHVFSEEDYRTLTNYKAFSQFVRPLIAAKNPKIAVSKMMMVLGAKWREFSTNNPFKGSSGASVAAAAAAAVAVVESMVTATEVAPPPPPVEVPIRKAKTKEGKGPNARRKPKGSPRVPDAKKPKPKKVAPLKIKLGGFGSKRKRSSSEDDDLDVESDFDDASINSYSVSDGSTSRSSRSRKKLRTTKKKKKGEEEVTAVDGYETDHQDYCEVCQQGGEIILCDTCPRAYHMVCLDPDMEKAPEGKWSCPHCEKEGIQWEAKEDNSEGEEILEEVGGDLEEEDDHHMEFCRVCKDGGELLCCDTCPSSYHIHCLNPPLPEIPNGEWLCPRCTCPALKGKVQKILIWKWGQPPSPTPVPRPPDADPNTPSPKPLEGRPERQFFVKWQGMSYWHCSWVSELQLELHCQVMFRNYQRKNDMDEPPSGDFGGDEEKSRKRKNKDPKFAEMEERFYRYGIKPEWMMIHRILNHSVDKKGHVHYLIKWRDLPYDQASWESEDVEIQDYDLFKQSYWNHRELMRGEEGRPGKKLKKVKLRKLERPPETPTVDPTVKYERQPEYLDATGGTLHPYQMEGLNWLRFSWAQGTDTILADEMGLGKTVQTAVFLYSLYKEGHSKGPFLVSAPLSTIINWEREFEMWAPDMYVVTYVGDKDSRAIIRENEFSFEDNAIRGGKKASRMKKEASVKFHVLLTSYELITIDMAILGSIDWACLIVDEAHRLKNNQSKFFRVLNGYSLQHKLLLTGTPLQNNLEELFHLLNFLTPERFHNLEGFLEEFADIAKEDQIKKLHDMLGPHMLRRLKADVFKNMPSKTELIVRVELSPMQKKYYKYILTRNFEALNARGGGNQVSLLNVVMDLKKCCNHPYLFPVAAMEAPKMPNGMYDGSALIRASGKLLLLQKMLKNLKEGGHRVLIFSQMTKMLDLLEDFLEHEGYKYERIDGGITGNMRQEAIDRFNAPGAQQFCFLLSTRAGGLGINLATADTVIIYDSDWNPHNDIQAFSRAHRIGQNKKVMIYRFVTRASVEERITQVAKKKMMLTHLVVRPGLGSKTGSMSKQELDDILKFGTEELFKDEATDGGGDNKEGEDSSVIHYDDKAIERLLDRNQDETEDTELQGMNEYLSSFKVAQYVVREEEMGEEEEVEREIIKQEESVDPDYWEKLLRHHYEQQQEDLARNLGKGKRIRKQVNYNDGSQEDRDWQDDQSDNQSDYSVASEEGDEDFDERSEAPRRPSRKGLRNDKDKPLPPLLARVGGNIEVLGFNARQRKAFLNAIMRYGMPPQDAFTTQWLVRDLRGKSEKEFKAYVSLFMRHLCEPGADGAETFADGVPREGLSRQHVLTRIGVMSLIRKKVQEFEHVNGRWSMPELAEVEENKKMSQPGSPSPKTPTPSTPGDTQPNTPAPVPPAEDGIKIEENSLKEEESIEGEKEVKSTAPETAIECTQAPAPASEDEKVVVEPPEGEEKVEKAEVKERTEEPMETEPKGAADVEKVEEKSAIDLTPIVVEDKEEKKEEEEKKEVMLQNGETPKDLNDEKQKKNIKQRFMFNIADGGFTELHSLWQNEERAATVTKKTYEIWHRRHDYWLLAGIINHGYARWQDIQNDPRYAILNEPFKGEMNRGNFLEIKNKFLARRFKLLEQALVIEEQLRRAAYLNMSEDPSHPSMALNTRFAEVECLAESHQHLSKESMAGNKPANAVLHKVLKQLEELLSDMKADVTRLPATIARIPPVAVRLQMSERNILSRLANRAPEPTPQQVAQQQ

Row | Structure (SMILES) | Kd
7 | CC(=O)Nc1cccc(-n2c(=O)n(C3CC3)c(=O)c3c(Nc4ccc(I)cc4F)n(C)c(=O)c(C)c32)c1 [TRAMETINIB] | > 30 µM (inactive)
8 | CN1N=C(N)c2cn([C@@H]3O[C@H](COP(=O)(O)O)[C@@H](O)[C@H]3O)c3ncnc1c23 [TRICIRIBINE PHOSPHATE] | > 30 µM (inactive)

biological target: T2, Electron transfer flavoprotein subunit beta (Homo sapiens, UniProt P38117)
T2 sequence (P38117 whole entry): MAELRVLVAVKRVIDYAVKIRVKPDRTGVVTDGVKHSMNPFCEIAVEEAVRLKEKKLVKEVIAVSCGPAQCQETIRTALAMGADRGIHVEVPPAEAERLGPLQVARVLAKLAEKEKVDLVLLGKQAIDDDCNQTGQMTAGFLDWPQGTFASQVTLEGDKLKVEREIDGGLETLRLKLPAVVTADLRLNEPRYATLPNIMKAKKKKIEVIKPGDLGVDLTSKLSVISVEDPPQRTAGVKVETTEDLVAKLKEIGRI

Row | Structure (SMILES) | Kd
9 | CC(=O)Nc1cccc(-n2c(=O)n(C3CC3)c(=O)c3c(Nc4ccc(I)cc4F)n(C)c(=O)c(C)c32)c1 [TRAMETINIB] | > 30 µM (inactive)
10 | CN1N=C(N)c2cn([C@@H]3O[C@H](COP(=O)(O)O)[C@@H](O)[C@H]3O)c3ncnc1c23 [TRICIRIBINE PHOSPHATE] | > 30 µM (inactive)

biological target: Inosine-5'-monophosphate dehydrogenase 2 (Homo sapiens, UniProt P12268)

Row | Structure (SMILES) | Kd
11 | CC(=O)Nc1cccc(-n2c(=O)n(C3CC3)c(=O)c3c(Nc4ccc(I)cc4F)n(C)c(=O)c(C)c32)c1 [TRAMETINIB] | > 30 µM (inactive)
12 | CN1N=C(N)c2cn([C@@H]3O[C@H](COP(=O)(O)O)[C@@H](O)[C@H]3O)c3ncnc1c23 [TRICIRIBINE PHOSPHATE] | > 30 µM (inactive)

biological target: T3, Tyrosine--tRNA ligase, cytoplasmic (Homo sapiens, UniProt P54577)
T3 sequence (P54577 whole entry): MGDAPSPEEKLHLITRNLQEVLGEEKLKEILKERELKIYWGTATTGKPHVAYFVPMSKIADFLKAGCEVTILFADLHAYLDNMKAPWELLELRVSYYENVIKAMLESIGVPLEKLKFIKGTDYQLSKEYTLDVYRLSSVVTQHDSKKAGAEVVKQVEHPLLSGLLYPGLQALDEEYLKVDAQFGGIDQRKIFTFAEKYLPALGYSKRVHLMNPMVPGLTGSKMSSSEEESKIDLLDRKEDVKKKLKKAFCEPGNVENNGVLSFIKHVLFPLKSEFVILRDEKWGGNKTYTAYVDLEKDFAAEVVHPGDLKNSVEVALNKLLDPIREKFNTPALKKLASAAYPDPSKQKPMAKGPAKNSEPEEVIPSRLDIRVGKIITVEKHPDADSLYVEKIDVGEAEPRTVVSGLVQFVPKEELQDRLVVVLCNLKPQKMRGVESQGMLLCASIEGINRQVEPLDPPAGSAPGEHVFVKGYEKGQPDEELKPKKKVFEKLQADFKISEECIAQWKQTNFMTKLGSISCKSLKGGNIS

Row | Structure (SMILES) | Kd
13 | CC(=O)Nc1cccc(-n2c(=O)n(C3CC3)c(=O)c3c(Nc4ccc(I)cc4F)n(C)c(=O)c(C)c32)c1 [TRAMETINIB] | > 30 µM (inactive)
14 | CN1N=C(N)c2cn([C@@H]3O[C@H](COP(=O)(O)O)[C@@H](O)[C@H]3O)c3ncnc1c23 [TRICIRIBINE PHOSPHATE] | > 30 µM (inactive)

biological target: 26S proteasome regulatory subunit 6B (Homo sapiens, UniProt P43686)

Row | Structure (SMILES) | Kd
15 | CC(=O)Nc1cccc(-n2c(=O)n(C3CC3)c(=O)c3c(Nc4ccc(I)cc4F)n(C)c(=O)c(C)c32)c1 [TRAMETINIB] | > 30 µM (inactive)
16 | CN1N=C(N)c2cn([C@@H]3O[C@H](COP(=O)(O)O)[C@@H](O)[C@H]3O)c3ncnc1c23 [TRICIRIBINE PHOSPHATE] | > 30 µM (inactive)

biological target: T4, Phenylalanine--tRNA ligase beta subunit (Homo sapiens, UniProt Q9NSD9)
T4 sequence (Q9NSD9 whole entry): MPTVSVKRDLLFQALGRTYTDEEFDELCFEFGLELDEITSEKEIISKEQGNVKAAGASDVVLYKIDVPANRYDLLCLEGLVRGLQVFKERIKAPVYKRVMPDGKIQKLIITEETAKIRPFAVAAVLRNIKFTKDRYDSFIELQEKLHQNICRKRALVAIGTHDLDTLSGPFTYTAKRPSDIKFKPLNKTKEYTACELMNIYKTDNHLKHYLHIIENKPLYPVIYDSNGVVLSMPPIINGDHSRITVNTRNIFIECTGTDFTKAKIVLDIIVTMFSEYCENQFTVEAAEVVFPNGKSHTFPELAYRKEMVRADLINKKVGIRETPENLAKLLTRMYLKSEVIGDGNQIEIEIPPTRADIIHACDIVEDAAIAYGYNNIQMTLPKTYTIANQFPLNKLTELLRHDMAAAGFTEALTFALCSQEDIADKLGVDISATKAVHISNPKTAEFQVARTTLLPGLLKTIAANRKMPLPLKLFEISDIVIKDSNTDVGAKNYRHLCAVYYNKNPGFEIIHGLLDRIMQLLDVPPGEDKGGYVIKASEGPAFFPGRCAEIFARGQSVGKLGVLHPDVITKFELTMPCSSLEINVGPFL

Row | Structure (SMILES) | Kd
17 | CC(=O)Nc1cccc(-n2c(=O)n(C3CC3)c(=O)c3c(Nc4ccc(I)cc4F)n(C)c(=O)c(C)c32)c1 [TRAMETINIB] | > 30 µM (inactive)
18 | CN1N=C(N)c2cn([C@@H]3O[C@H](COP(=O)(O)O)[C@@H](O)[C@H]3O)c3ncnc1c23 [TRICIRIBINE PHOSPHATE] | > 30 µM (inactive)

biological target: Ephrin type-A receptor 2 (Homo sapiens, UniProt P29317)

Row | Structure (SMILES) | Kd
19 | CC(=O)Nc1cccc(-n2c(=O)n(C3CC3)c(=O)c3c(Nc4ccc(I)cc4F)n(C)c(=O)c(C)c32)c1 [TRAMETINIB] | > 30 µM (inactive)
20 | CN1N=C(N)c2cn([C@@H]3O[C@H](COP(=O)(O)O)[C@@H](O)[C@H]3O)c3ncnc1c23 [TRICIRIBINE PHOSPHATE] | > 30 µM (inactive)

biological target: Adenosine kinase (Homo sapiens, UniProt P55263)

Row | Structure (SMILES) | Kd
21 | CC(=O)Nc1cccc(-n2c(=O)n(C3CC3)c(=O)c3c(Nc4ccc(I)cc4F)n(C)c(=O)c(C)c32)c1 [TRAMETINIB] | > 30 µM (inactive)
22 | CN1N=C(N)c2cn([C@@H]3O[C@H](COP(=O)(O)O)[C@@H](O)[C@H]3O)c3ncnc1c23 [TRICIRIBINE PHOSPHATE] | > 30 µM (inactive)

biological target: Wee1-like protein kinase (Homo sapiens, UniProt P30291)
Sequence (P30291 whole entry): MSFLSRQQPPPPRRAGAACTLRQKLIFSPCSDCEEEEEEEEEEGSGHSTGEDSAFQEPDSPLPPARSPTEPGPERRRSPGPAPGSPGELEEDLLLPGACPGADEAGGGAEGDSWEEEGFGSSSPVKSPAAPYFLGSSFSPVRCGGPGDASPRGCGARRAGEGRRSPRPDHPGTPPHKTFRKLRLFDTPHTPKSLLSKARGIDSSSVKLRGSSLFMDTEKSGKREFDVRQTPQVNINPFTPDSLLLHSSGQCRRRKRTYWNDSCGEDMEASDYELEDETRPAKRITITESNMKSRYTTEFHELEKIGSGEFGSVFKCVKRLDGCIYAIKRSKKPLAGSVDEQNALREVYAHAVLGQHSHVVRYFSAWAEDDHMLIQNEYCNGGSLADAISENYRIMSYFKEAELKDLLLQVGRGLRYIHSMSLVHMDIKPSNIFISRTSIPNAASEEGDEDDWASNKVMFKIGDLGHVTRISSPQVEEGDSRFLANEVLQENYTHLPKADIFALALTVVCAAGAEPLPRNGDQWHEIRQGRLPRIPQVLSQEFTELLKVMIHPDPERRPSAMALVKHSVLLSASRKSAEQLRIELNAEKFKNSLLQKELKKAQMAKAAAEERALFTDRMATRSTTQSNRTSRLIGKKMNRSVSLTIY

Row | Structure (SMILES) | Kd
23 | CC(=O)Nc1cccc(-n2c(=O)n(C3CC3)c(=O)c3c(Nc4ccc(I)cc4F)n(C)c(=O)c(C)c32)c1 [TRAMETINIB] | > 30 µM (inactive)
24 | CN1N=C(N)c2cn([C@@H]3O[C@H](COP(=O)(O)O)[C@@H](O)[C@H]3O)c3ncnc1c23 [TRICIRIBINE PHOSPHATE] | > 30 µM (inactive)

biological target: Interleukin-1 receptor-associated kinase 1 (Homo sapiens, UniProt P51617)

Row | Structure (SMILES) | Kd
25 | CC(=O)Nc1cccc(-n2c(=O)n(C3CC3)c(=O)c3c(Nc4ccc(I)cc4F)n(C)c(=O)c(C)c32)c1 [TRAMETINIB] | > 30 µM (inactive)
26 | CN1N=C(N)c2cn([C@@H]3O[C@H](COP(=O)(O)O)[C@@H](O)[C@H]3O)c3ncnc1c23 [TRICIRIBINE PHOSPHATE] | > 30 µM (inactive)

biological target: Putative heat shock protein HSP 90-beta 2 (Homo sapiens, UniProt Q58FF8)

Row | Structure (SMILES) | Kd
27 | CC(=O)Nc1cccc(-n2c(=O)n(C3CC3)c(=O)c3c(Nc4ccc(I)cc4F)n(C)c(=O)c(C)c32)c1 [TRAMETINIB] | > 30 µM (inactive)
28 | CN1N=C(N)c2cn([C@@H]3O[C@H](COP(=O)(O)O)[C@@H](O)[C@H]3O)c3ncnc1c23 [TRICIRIBINE PHOSPHATE] | > 30 µM (inactive)

biological target: Myosin-14 (Homo sapiens, UniProt Q7Z406)

Row | Structure (SMILES) | Kd
29 | CC(=O)Nc1cccc(-n2c(=O)n(C3CC3)c(=O)c3c(Nc4ccc(I)cc4F)n(C)c(=O)c(C)c32)c1 [TRAMETINIB] | > 30 µM (inactive)
30 | CN1N=C(N)c2cn([C@@H]3O[C@H](COP(=O)(O)O)[C@@H](O)[C@H]3O)c3ncnc1c23 [TRICIRIBINE PHOSPHATE] | > 30 µM (inactive)

Reference: ChEMBL document CHEMBL3991601, “The target landscape of clinical kinase drugs” (Science, 2017)
